Entries after “also recorded” stand apart in the source; their conditions may differ.
Assays:
[1] = Chem. Res. Toxicol. 1996, 9, 689-95; cited from earlier work
rats = assay: acute LD50, one-time feeding study of rats; format: in vivo, rat; settings: for toxicity rating: acute
Protocol: Acute LD50 measurements for a one-time feeding study of rats were determined over a 21 day period for both the α-branched perfluorocarboxylate salt, C7 F15 CF(CF3)COO^- NH4^+, and its straight chain isomer, CF3 (CF2)8 COO^- NH4^+.

[2] = thermal degradation in water and characterization of volatile products; format: physicochemical
Protocol: The thermal degradation of an aqueous α-branched perfluoroalkylcarbonyl fluoride and the characterization of the products produced from the degradation were carried out using the following procedure. […] 5.7 g of volatile degradation products were then collected by azeotropic distillation using a Dean-Stark apparatus.
The thermal degradation of C7 F15 CF(CF3)COF (from Example A4) dispersed in water was also carried out by heating the aqueous mixture for several hours at approximately 80° C.

[3] = thermal degradation of neat perfluorocarboxylate salts by thermogravimetric analysis; format: physicochemical; settings: TGA 10° C./min, nitrogen
From the text: Thermal degradation measurements were made on a series of neat perfluorocarboxylate salts, including several α-branched open chain structures (Examples N2-N9), a primarily linear open chain structure (Example N10--Fluorad™ FC-143 Fluorochemical Surfactant, commercially available from 3M Company, St. Paul, Minn.), and a closed chain (i.e., cyclic) structure (Example N11- made by the electrochemical fluorination of benzoic acid and hydrolysis in the presence of KOH, as described in U.S. Pat. No. 2,567,011 (Diesslin et al.)).
The perfluorocarboxylate salts were tested using a Perkin-Elmer TGA 7 thermogravimetric analysis apparatus and a salt sample size of approximately 5 mg, a heating rate of 10° C./min, and a nitrogen gas flow rate of 40-45 mL/min. Using the TGA 7 software, the following temperatures were recorded: (1) the onset temperature of decomposition, (2) the temperature at which 50% of the sample weight was lost, and (3) the temperature at which 90% of the sample weight was lost.

[4] = emulsion polymerization of vinylidene fluoride and hexafluoropropylene with surfactant as emulsifier
From the text: The following procedure was used to evaluate C7 F15 CF(CF3)COO^- NH4^+ (from Ex. M1) as an emulsifier to copolymerize hexafluoropropylene (HFP) and vinylidene fluoride.
A 1 gallon, vertically agitated stainless steel reactor with pressure and temperature controls was evacuated and twice purged with nitrogen. Using an isolated vacuum, a solution comprised of 2 g of ammonium persulfate (initiator) and 6 g of dipotassium phosphate dissolved in 2800 g of deionized water was introduced into the reactor. The remaining vacuum on the reactor was vented with nitrogen, and the solution was degassed twice under agitation using alternate vacuum and nitrogen purges. […] The reactor was vented with nitrogen, the solution was agitated very briefly, and the reactor was evacuated of nitrogen and isolated. Then the reactor was vented with hexafluoropropylene monomer to a pressure of approximately 10 psig (1280 torr total pressure), and the temperature of the batch was raised to 72° C. with high agitation. Maintaining the temperature at 72° C., a monomer mixture of 60% (wt) of vinylidene fluoride and 40% (wt) hexafluoropropylene was fed from a tared gas cylinder into the head space of the reactor to maintain a reactor pressure of 130 psig (7480 total pressure). After feeding in about 1 kg of monomer blend (approximately 3.75 hours duration), the introduction of monomer was ceased, the reaction was allowed to cool to room temperature, and any residual unreacted monomer was vented.
The resulting latex polymer was drained from the reactor, and percent solids of the latex was determined to be 25% by weight as measured by drying 10 g of latex in a forced air oven for 16 hours at 105° C.
The reactor body was separated from the reactor head, and a visual inspection of the reactor was made to determine the amount of coagulated polymer in the reactor (the amount should be minimal in a good polymerization reaction). A qualitative rating was assessed, ranging from "none" to "little" to "some."
The latex stability was determined by half filling a 16 oz (450 mL) jar with latex and shaking several hours in the horizontal position, quantitatively rating the latex after shaking using a 3-point scale ranging from 0=very stable to 3=unstable.
Particle size in the latex was determined using 90° scattering on a Coulter sub-micron particle size analyzer.
Degree of foaming was rated using the following qualitative scale: 0=not foamy, 1=slightly foamy, 2=moderately foamy, and 3=very foamy.
In Example P2, the same experiment was run as in Example P1, except that the concentration of C7 F15 CF(CF3)COO^- NH4^+emulsifier was raised to 3500 ppm, the reaction time decreased from 3.75 to 3.5 hours, and the reaction temperature increased from 72° C. to 78° C.
In Comparative Examples P3-P6, the same experiment was run as in Example P1, except that C8 F17 SO2 N(C2 H5)CH2 COO^- K^+ (Fluorad™ FC-128 Fluorochemical Surfactant, available from 3M Company, St. Paul, Minn.), C7 F15 COO^- H4 N^+ (Fluorad™ FC-143 Fluorochemical Surfactant), and Surflon™ S111S Fluorochemical Surfactant (believed to be nominally telomer-based n-C9 F19 COO^- H4 N^+, commercially available from Asahi Glass Corp., Japan) were substituted for C7 F15 CF(CF3)COO^- H4 N^+ emulsifier.
In Comparative Example P7, the same experiment was run as in Example P1, except that no emulsifier was used.

rat = assay: exhaust gas monitoring of dosed rat in uptake desiccator chamber; format: in vivo; settings: 500 mg/kg
Protocol: Additional biological testing of C7 F15 CF(CF3)COO^- NH4^+ in rats was conducted using the following test apparatus. An uptake desiccator jar chamber was designed with top and bottom portions, the top portion equipped with an inlet port, an outlet port, oxygen monitor and pressure gage. An oxygen gas tank supplied oxygen into the inlet port, and the oxygen level in the chamber was maintained at a normal ambient level as measured by the oxygen monitor and pressure gage. The outlet port was connected in series with a carbon dioxide scrubber and particulate filter, which in turn was connected to a loop containing a stainless steel bellows pump operating at about 2 L/min. Most of the gas in the loop was recycled into the inlet port, but about 100 mL/min was directed through a secondary loop to a gas chromatograph equipped with a 0.5 mL gas sampling loop.
A rat dosed at 500 mg/kg was placed in the bottom portion of the chamber, the top portion was attached, and the assembled chamber was placed in an ice-filled pan to allow for the condensation of water. The oxygen flow was started, and the exhaust gases were monitored for the presence of CF3 CF=CF(C6 F13) and C7 F15 CFHCF3, aqueous degradation products of C7 F15 CF(CF3)COOH, using known standards of this olefin and hydride in the gas chromatograph. […] After 24 minutes, one slight chromatographic peak was noted, corresponding to the monohydride. After 92 minutes, the peak became noticeably larger and a second peak formed, corresponding to the olefin.

[5] = surface tension of aqueous surfactant solutions and critical micelle concentration (K-12 Processor Tensiometer); format: physicochemical; settings: carboxylate salts, deionized water; Table 5
From the text: Critical Micelle Concentration (CMC): The critical micelle concentration is defined as the concentration at which further surface tension is no longer lowered with increasing levels of surfactant. […] Surface tension is then plotted vs. log concentration and the data points are connected. The resulting curve has a nearly horizontal flat portion at concentrations above the CMC and has a negative steep slope at concentrations below the CMC. The CMC is defined as the lowest surfactant concentration in the horizontal flat portion of the curve.
(§1) Then the critical micelle concentration (CMC) was determined for each surfactant.
as §1

[6] = degradation of aqueous salt solution stored at room temperature; format: physicochemical; settings: same 1 year period
Protocol: The α-branched open chain ammonium salt compounds from Examples N3-N6 were dissolved in deionized water at a concentration of 5% by weight (0.5 g ammonium salt in 10 mL water) and were stored at room temperature.

[7] = hydrolytic stability of esters stirred with concentrated aqueous ammonium hydroxide; format: physicochemical; settings: 2 days or comparable conditions
From the text: The acrylate and methacrylate esters from Examples D1-D11 were fully recoverable with essentially no degradation after being stirred with concentrated aqueous ammonium hydroxide for a period of 2 days.

With `O=C(O)C(F)(F)C(F)(F)C(F)(F)C(F)(F)C(F)(F)C(F)(F)C(F)(F)C(F)(F)C(F)(F)F` [C9 F19 COO^- NH4^+, reference compound] as the compound, how does the toxicity [1] read?
The toxicity was “moderately toxic”.

And the “toxicity relative to the α-branched isomer” value (rats; LD50 based)?
Its value is “ca. 10 times”.

And the toxicity rating (rats)?
The toxicity rating was “moderately toxic”.

What about the wasting syndrome (rats; one-time feeding) of the same compound?
The wasting syndrome was “Wasting syndrome was observed”.

What does the source list for `O=C(F)C(F)(C(F)(F)F)C(F)(F)C(F)(F)C(F)(F)C(F)(F)C(F)(F)C(F)(F)C(F)(F)F` (stereo not drawn) [Example A1, C7 F15 CF(CF3)COF]?
monohydride C7 F15 CFHCF3 in degradation products ([2]; deionized water, refluxed 2 hours): 85%; olefin C6 F13 CF=CFCF3 in degradation products ([2]; deionized water, refluxed 2 hours, cis/trans mixture): 15%; volatile degradation products collected ([2]; from 8 g, water, refluxed 2 hours): 5.7 g; volatile products formed ([2]; water, several hours at approximately 80° C.): The same volatile products were formed

For `O=C(O)C1(F)C(F)(F)C(F)(F)C(F)(F)C(F)(F)C1(F)F` [U.S. Pat. No. 2,567,011], which “Onset temperature of decomposition” value [3] is on record?
Its value is 100 °C.

What about the “Temperature for 50% loss” value [3] of the same compound?
The value was 110 °C.

And the “Temperature for 90% loss” value [3]?
Its value is 120 °C.

Which “Latex Stability” value ([4]; 100 ppm emulsifier) does the source give for `CCN(CC(=O)O)S(=O)(=O)C(F)(F)C(F)(F)C(F)(F)C(F)(F)C(F)(F)C(F)(F)C(F)(F)C(F)(F)F` [Fluorad ™ FC-128, C8 F17 SO2 N(C2 H5)CH2 COO^- K^+] here?
The value was 2.

What about the “Latex Stability” value ([4]; 350 ppm emulsifier) of the same compound?
The value was 0.

What does the source list for `O=C(O)C(F)(C(F)(F)F)C(F)(F)C(F)(F)C(F)(F)C(F)(F)C(F)(F)C(F)(F)C(F)(F)F` (stereo not drawn) [Example M14, C7 F15 CF(CF3)COO^- H4 N^+]?
Latex Stability ([4]; 350 ppm emulsifier): 2; Latex Stability ([4]; 3500 ppm emulsifier): 0; post-exposure observation of toxicity (rat): no evidence of toxicity (death) or evidence of wasting syndrome; time to second peak (olefin) in exhaust gas; monohydride peak noticeably larger (rat): 92 min; time to slight peak of monohydride in exhaust gas (rat): 24 min; olefin and monohydride peaks in exhaust gas (rat; after 217 minutes): both peaks became significantly larger; olefin or hydride in exhaust gas (rat; initially): no olefin or hydride were detected; CMC [5]: 2500 ppm; Surf. Tens. at the CMC [5]: 16.5 dynes/cm; toxicity rating (rats; listed as C7 F15 CF(CF3)COO^- NH4^+): relatively low toxicity; also recorded: only slightly toxic; time after which rats began regaining weight (rats; one-time feeding): 3 days; time of deaths from toxic doses (rats; one-time feeding): 2 to 3 days; wasting syndrome (rats; one-time feeding): No wasting syndrome was noted

Which results are given for `O=C(O)C(F)(F)C(F)(F)C(F)(F)C(F)(F)C(F)(F)C(F)(F)C(F)(F)F` [FC-143, C7 F15 COO^- H4 N^+]?
Latex Stability ([4]; 350 ppm emulsifier): 2; CMC [5]: 8000 ppm; Surf. Tens. at the CMC [5]: 21.5 dynes/cm; degradation over 1 year (would show) [6]: no signs of degradation

For `C=CC(=O)OCCOC(=O)C(F)(F)C(F)(F)C(F)(F)C(F)(F)C(F)(F)C(F)(F)C(F)(F)F` [C7 F15 COOCH2 CH2 OCOCH=CH2], which hydrolytic stability [7] is on record?
The hydrolytic stability was “readily hydrolyzed”.

With `O=C(O)C(F)(C(F)(F)F)C(F)(F)C(F)(F)C(F)(F)C(F)(F)C(F)(F)C(F)(F)C(F)(F)F` (stereo not drawn) [Example M1, C7 F15 CF(CF3)COOH] as the compound, how does the “degradation products in aqueous solution” value ([2]; aqueous solution, similar way) read?
The value was “the same monohydride and olefin”.

With `O=C(O)C(F)(C(F)(F)F)C(F)(F)C(F)(F)C(F)(F)C(F)(F)C(F)(F)F` (stereo not drawn) [Example M28, C5 F11 CF(CF3)COO^- Na^+] as the compound, how does the “Temperature for 50% loss” value ([3]; listed as N8) read?
Its value is 250 °C.

Source: patent US6013795A, “Alpha-branched fluoroalkylcarbonyl fluorides and their derivatives” (3M Innovative Properties Company, priority 1996, dated 2000)
